Measured values published in paper PMC7747594, “Protease-activated receptor-2 ligands reveal orthosteric and allosteric mechanisms of receptor inhibition” (Communications Biology, 2020).
Read-outs that look alike come from different tables or passages of the source.

What was measured:
hPAR2 [1] = molecular target: T1, hPAR2 (Homo sapiens, UniProt P55085); experiment: β-arrestin-2 recruitment assay, inhibition of SLIGRL-NH2 in U2OS-hPAR2 cells; assay type: cell-based
T1 sequence (P55085 26-397): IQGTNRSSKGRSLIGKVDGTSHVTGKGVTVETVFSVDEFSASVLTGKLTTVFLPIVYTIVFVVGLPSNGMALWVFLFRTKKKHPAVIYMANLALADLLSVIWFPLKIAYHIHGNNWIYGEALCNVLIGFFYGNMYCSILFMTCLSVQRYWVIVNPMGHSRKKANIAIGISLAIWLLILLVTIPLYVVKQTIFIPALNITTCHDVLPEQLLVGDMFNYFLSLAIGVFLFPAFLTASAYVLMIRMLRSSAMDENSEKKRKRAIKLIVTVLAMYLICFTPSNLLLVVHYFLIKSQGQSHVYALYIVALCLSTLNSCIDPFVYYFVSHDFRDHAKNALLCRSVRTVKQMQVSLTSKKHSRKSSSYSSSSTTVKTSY
Experimental: β‐Arrestin-2 recruitment was measured in U2OS-hPAR2 cells using the DiscoverX assay kit, according to the manufacturer’s instructions. Briefly, cells were seeded in McCoy’s 5A media containing 10% FBS at 4000 cells per well in 384-well plates and incubated overnight at 37 °C, 5% CO2. Antagonist compounds (30 µM–1 nM) were incubated with the cells for 30 min prior to the addition of agonist SLIGRL-NH2 (10 µM) at EC80 and further incubation for 90 min at 37 °C. Working detection solution (12 µl) was then added to each well, incubated at room temperature in the dark for 60 min and the chemiluminescence signal read on the EnVision microplate reader (Perkin Elmer).
(§1) Binding data were analysed using the One site – Fit Ki model in GraphPad Prism 8 (GraphPad Software) to determine binding affinity. Pharmacology in vitro potency data was analysed with a 4-parameter logistic fit using the equation y = Bottom + (Top − Bottom)/[…] where y is the response, x is the 10-logarithm of the drug concentration, Bottom is no response and Top is full response in GraphPad Prism 8 or Genedata Screener (Genedata). pEC50 and pIC50 data are presented as mean ± standard error of the mean (s.e.m.) derived from the number of independent experiments stated. Schild slope analysis was calculated using Graphpad Prism 8 Gaddum/Schild EC50 global fitting (shared model parameters between all data sets) competitive model. […] Schild slope quantifies the shifts in agonist response in the presence of antagonist, a Schild slope of 1 indicates the antagonist is competitive and extra-sum-of-squares F-test (p < 0.05) was used to compare the calculated Schild slope against a hypothetical Schild slope of 1. […] The relative activity was calculated using (EmaxEC50’)/(Emax’EC50) with the Hill slope help constant at 1. EC50’ and Emax’ denote the EC50 and Emax in the absence of allosteric modulator, while EC50 and Emax denote those measured in the presence of allosteric modulator. When the Hill slope = 1, the relative activity plot approaches an asymptote corresponding to the estimate of the γ value.

hPAR2 [2] = molecular target: T1, hPAR2; experiment: Radiolabelled competition binding assay against [^3H]-GB110 on HEKexpi293F membranes; parameters: expressed in transfected cells
Experimental: The reaction was then filtered through 0.5% PEI-coated filter plates using a BiomekFX. The filter plate was then dried for 1 h at 50 °C. Scintillation fluid was added to each well, before reading the plate in a Microbeta reader.
Binding data were analysed using the One site – Fit Ki model in GraphPad Prism 8 (GraphPad Software) to determine binding affinity. Pharmacology in vitro potency data was analysed with a 4-parameter logistic fit using the equation y = Bottom + (Top − Bottom)/[…] where y is the response, x is the 10-logarithm of the drug concentration, Bottom is no response and Top is full response in GraphPad Prism 8 or Genedata Screener (Genedata). pEC50 and pIC50 data are presented as mean ± standard error of the mean (s.e.m.) derived from the number of independent experiments stated. Schild slope analysis was calculated using Graphpad Prism 8 Gaddum/Schild EC50 global fitting (shared model parameters between all data sets) competitive model. The most rigorous method for quantifying agonist-antagonist interactions is to globally fit the Gaddum/Shild model to all agonist dose–response curves. Schild slope quantifies the shifts in agonist response in the presence of antagonist, a Schild slope of 1 indicates the antagonist is competitive and extra-sum-of-squares F-test (p < 0.05) was used to compare the calculated Schild slope against a hypothetical Schild slope of 1. […] The relative activity was calculated using (EmaxEC50’)/(Emax’EC50) with the Hill slope help constant at 1. EC50’ and Emax’ denote the EC50 and Emax in the absence of allosteric modulator, while EC50 and Emax denote those measured in the presence of allosteric modulator. When the Hill slope = 1, the relative activity plot approaches an asymptote corresponding to the estimate of the γ value.

rat PAR2 = molecular target: T2, rat PAR2 (Rattus norvegicus, UniProt Q63645); experiment: Ca^2+ flux assay, inhibition of SLIGRL-NH2 activation in rat KNRK cells; assay type: cell-based
T2 construct: a rat KNRK cell line with endogenous expression of rat PAR2; host or cells: rat KNRK cells
T2 sequence (Q63645 26-397): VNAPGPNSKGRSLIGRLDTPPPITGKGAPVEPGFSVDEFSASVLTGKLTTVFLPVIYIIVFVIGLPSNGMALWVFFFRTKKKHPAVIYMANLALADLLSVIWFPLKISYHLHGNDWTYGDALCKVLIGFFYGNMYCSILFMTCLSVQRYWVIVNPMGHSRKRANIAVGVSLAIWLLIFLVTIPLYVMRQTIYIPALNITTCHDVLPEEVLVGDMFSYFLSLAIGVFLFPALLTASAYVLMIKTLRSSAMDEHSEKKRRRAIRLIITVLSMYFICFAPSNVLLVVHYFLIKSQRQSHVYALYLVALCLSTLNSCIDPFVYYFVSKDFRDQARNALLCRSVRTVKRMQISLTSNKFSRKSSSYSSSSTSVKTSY

hPAR2 [3] = molecular target: T1, hPAR2; experiment: Europium-tagged competition binding assay against Eu-tagged-2f-LIGRLO(dtpa)-NH2 on CHO-hPAR2 cells; parameters: expressed in transfected cells; host or cells: Flp-In CHO
Experimental: CHO-hPAR2 cells were seeded overnight in 384-well plate at 2.5 × 10^4 cells/well and blocked with 2% BSA for 60 min. […] Cells were washed 3× with PBS supplemented with 20 µM EDTA, 0.01% Tween and 0.2% BSA followed by addition of DELFIA Enhancement Solution (Perkin Elmer) for 90 min. Time-resolved fluorescence was measured with PHERAstar FS reader (BMG Labtech).
as §1

[4] = against Eu-tagged-2f-LIGRLO(dtpa)-NH2, CHO-hPAR2 cells, mean ± s.e.m., read-out: Competition Binding (hPAR2) pKi (converted)
[5] = earlier manuscript version quoted by reviewer, read-out: Ki
[6] = SLIGRL-NH2, U2OS-hPAR2, mean ± s.e.m., read-out: β-arrestin (hPAR2) pIC50 (converted)
[7] = SLIGRL-NH2, rat PAR2 in KNRK cells, mean ± s.e.m., read-out: Ca^2+ flux (rPAR2) pIC50 (converted)

In the case of `CCCc1cc(F)ccc1C(O)c1ncc[nH]1` (stereo not shown) [AZ8838], the IC50 (hPAR2 [1]) is reported as 794 nM, the Ki (hPAR2 [2]) is reported as 398 nM and the IC50 (rat PAR2) is reported as 5010 nM. For the same compound, the Ki (hPAR2 [3]; [4]) was 6310 nM and the Ki (hPAR2 [3]; [5]) was 3600 nM.

`C[C@@H](C1CCCCC1)n1c(-c2cc3c(cc2Br)OCO3)nc2cc(C(=O)Nc3ccncc3)ccc21` [AZ2623] showed an IC50 (hPAR2 [1]; [6]) of 490 nM, an IC50 (rat PAR2; [7]) of 5.01 nM and a Ki (hPAR2 [3]; [4]) of 79.4 nM.

`CNC(=O)[C@H]1CC[C@@H](NC(=O)[C@H](CC2CCCCC2)NC(=O)c2cn(Cc3ccccc3)nn2)c2ccccc21` [AZ2429] was tested, and the remaining binding at 100 µM (hPAR2 [2]; 2 h, log [compound],M -4, individual data points, read-out: specific binding of [^3H]-GB110, Fig 2b source data) was 19.6%, the remaining binding at 33.3 µM (hPAR2 [2]; 2 h, log [compound],M -4.47756, individual data points, read-out: specific binding of [^3H]-GB110, Fig 2b source data) was 10.5% and the remaining binding at 3.7 µM (hPAR2 [2]; 2 h, log [compound],M -5.4318, individual data points, read-out: specific binding of [^3H]-GB110, Fig 2b source data) was 11.5%. The remaining binding at […] (hPAR2 [2]; 2 h, log [compound],M -5.91009, individual data points, read-out: specific binding of [^3H]-GB110, Fig 2b source data) was 15.9%, the remaining binding at 0.0152 µM (hPAR2 [2]; 2 h, log [compound],M -7.81816, individual data points, read-out: specific binding of [^3H]-GB110, Fig 2b source data) was 88% and the remaining binding at 0.00508 µM (hPAR2 [2]; 2 h, log [compound],M -8.29414, individual data points, read-out: specific binding of [^3H]-GB110, Fig 2b source data) was 97.4%. It also gave a remaining binding at 0.00169 µM (hPAR2 [2]; 2 h, log [compound],M -8.77211, individual data points, read-out: specific binding of [^3H]-GB110, Fig 2b source data) of 99.3%, a remaining binding at 0.000565 µM (hPAR2 [2]; 2 h, log [compound],M -9.24795, individual data points, read-out: specific binding of [^3H]-GB110, Fig 2b source data) of 105% and a Ki (hPAR2 [2]; [3H]-GB110, earlier manuscript version quoted by reviewer, read-out: Ki) of 63 nM.

In the case of `C[C@@H](C1CCCCC1)n1c(-c2cc3c(cc2Br)OCO3)nc2cc(C(=O)Nc3ccc(C#N)cc3)ccc21` [AZ3451], the IC50 (hPAR2 [1]; [6]) is reported as 87.1 nM, the Ki (hPAR2 [2]; against [^3H]-GB110, HEKexpi293F membranes expressing hPAR2, mean ± s.e.m., read-out: Competition binding pKi (converted)) is reported as 12.6 nM and the IC50 (rat PAR2; [7]) is reported as 3.16 nM. It also gave a Kb (hPAR2 [3]; determined with Eu-tagged-2f-LIGRLO(dtpa)-NH2, read-out: equilibrium dissociation constant pKA / pKB (converted)) of 126 nM and a Ki (hPAR2 [3]; [5]) of 120 nM.
